From patent US8507411B2, “Neoglycorandomization and digitoxin analogs” (priority 2004, dated 2013)
Read-outs that look alike come from different tables or passages of the source.

Columns and labels:
NCI-H460 = test: High-throughput calcein AM cytotoxicity assay, NCI-H460; type: cell-based, human; settings: NCI-H460 cells
Description: (§1) Standard errors are depicted with error bars.

SF-268 = test: cells; type: cell-based, human; settings: SF-268 cells
How it was run: (§2)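 Live-cell esterase read-out: calcein AM added for 30 min at 37° C after 72 h compound exposure and a PBS wash. Dosing used a five-point 1:2 series. IC50 values are variable-slope logistic fits over at least six replicate experiments.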

NCI/ADR-RES = test: cells; type: cell-based, human; settings: NCI/ADR-RES cells
How it was run: as §2

SK-OV-3 = test: cells; type: cell-based, human; settings: SK-OV-3 cells
How it was run: as §2

Hep3B = test: High-throughput calcein AM cytotoxicity assay, Hep3B; type: cell-based, human; settings: Hep 3B cells
Description: as §1

MCF7 = test: High-throughput calcein AM cytotoxicity assay, MCF7; type: cell-based, human; settings: MCF7 cells
Description: as §1

NmuMG = test: cells; type: cell-based, mouse
How it was run: as §2

HCT-116 = test: High-throughput calcein AM cytotoxicity assay, HCT-116; type: cell-based, human; settings: HCT-116 cells
Description: as §1

A549 = test: High-throughput calcein AM cytotoxicity assay, A549; type: cell-based, human; settings: A549 cells
Description: as §1

Du145 = test: High-throughput calcein AM cytotoxicity assay, Du145; type: cell-based, human; settings: Du145 cells
Description: as §1

[1] = NmuMG cells (mouse mammary normal epithelial control line), read-out: IC50
[2] = NmuMG mouse mammary normal epithelial control line, read-out: IC50, NmuMG

Compound | IC50 (NCI-H460; read-out: IC50, NCI-H460) [µM] | IC50 (SF-268; read-out: IC50, SF-268) [µM] | IC50 (NCI/ADR-RES; read-out: IC50, NCI/ADR-RES) [µM] | IC50 (SK-OV-3; read-out: IC50, SK-OV-3) [µM] | IC50 (Hep3B; read-out: IC50, Hep 3B) [µM] | IC50 (MCF7; read-out: IC50, MCF7) [µM] | IC50 (NmuMG; [1]) [µM] | IC50 (HCT-116; read-out: IC50, HCT-116) [µM] | IC50 (A549; read-out: IC50, A549) [µM] | IC50 (Du145; read-out: IC50, Du145) [µM] | IC50 (NmuMG; [2]) [µM] | IC50 (NCI-H460; read-out: IC50) [µM] | IC50 (SF-268; read-out: IC50) [µM] | IC50 (NCI/ADR-RES; read-out: IC50) [µM] | IC50 (SK-OV-3; read-out: IC50) [µM] | IC50 (Hep3B; read-out: IC50) [µM] | IC50 (MCF7; read-out: IC50) [µM] | IC50 (HCT-116; read-out: IC50) [µM] | IC50 (A549; read-out: IC50) [µM] | IC50 (Du145; read-out: IC50) [µM]
CON(C1CCC2(C)C(CCC3C2CCC2(C)C(C4=CC(=O)OC4)CCC32O)C1)C1OC(CO)C(O)C(O)C1O [29α, D-idoside] | > 25 | > 25 | > 25 | > 25 | > 25 | > 25 | > 25 | > 25 | > 25 | > 25 | – | – | – | – | – | – | – | – | – | –
CON([C@H]1CC[C@@]2(C)[C@H](CC[C@@H]3[C@@H]2CC[C@]2(C)[C@@H](C4=CC(=O)OC4)CC[C@]32O)C1)[C@@H]1O[C@H](CO)[C@H](O)[C@@H](O)[C@@H]1O [29β, D-idoside] | 1.3 | 1.3 | 1.5 | 1.5 | 0.3 | 0.44 | – | 2.3 | 0.37 | 1.3 | > 25 | – | – | – | – | – | – | – | – | –
CON(C1CCC2(C)C(CCC3C2CCC2(C)C(C4=CC(=O)OC4)CCC32O)C1)C1CC(C)(O)C(O)C(C)O1 [30α, L-mycaroside] | > 25 | > 25 | > 25 | > 25 | > 25 | > 25 | > 25 | > 25 | > 25 | > 25 | – | – | – | – | – | – | – | – | – | –
CON([C@H]1CC[C@@]2(C)[C@H](CC[C@@H]3[C@@H]2CC[C@]2(C)[C@@H](C4=CC(=O)OC4)CC[C@]32O)C1)[C@@H]1C[C@@](C)(O)[C@@H](O)[C@H](C)O1 [30β, L-mycaroside] | 0.19 | 1.1 | 0.35 | 1.1 | 0.6 | 1.8 | – | 0.6 | 0.6 | 1.1 | > 25 | – | – | – | – | – | – | – | – | –
CON(C1CCC2(C)C(CCC3C2CCC2(C)C(C4=CC(=O)OC4)CCC32O)C1)C1OCC(O)C(O)C1O [32α, L-arabinoside] | – | – | – | – | – | – | > 25 | – | – | – | – | > 25 | > 25 | > 25 | > 25 | > 25 | > 25 | > 25 | > 25 | > 25
CON(C1CCC2(C)C(CCC3C2CCC2(C)C(C4=CC(=O)OC4)CCC32O)C1)C1OC(CO)C(O)C(O)C1NC(C)=O [34α, N-acetyl-D-galactosaminoside] | – | – | – | – | – | – | > 25 | – | – | – | – | > 25 | > 25 | > 25 | > 25 | > 25 | > 25 | > 25 | > 25 | > 25
CON(C1CCC2(C)C(CCC3C2CCC2(C)C(C4=CC(=O)OC4)CCC32O)C1)C1OC(CO)C(O)C(O)C1NC(C)=O [34β, N-acetyl-D-galactosaminoside] | 20 | > 25 | 6.4 | 17 | 17 | > 25 | – | > 25 | > 25 | > 25 | > 25 | – | – | – | – | – | – | – | – | –
CON(C1CCC2(C)C(CCC3C2CCC2(C)C(C4=CC(=O)OC4)CCC32O)C1)C1OC(COC2OC(CO)C(O)C(O)C2O)C(O)C(O)C1O (stereo not drawn) [35α, melibioside] | – | – | – | – | – | – | > 25 | – | – | – | – | > 25 | > 25 | > 25 | > 25 | > 25 | > 25 | > 25 | > 25 | > 25
CON(C1CCC2(C)C(CCC3C2CCC2(C)C(C4=CC(=O)OC4)CCC32O)C1)C1OC(CO)C(OC2OC(CO)C(O)C(O)C2O)C(O)C1O (stereo not drawn) [36α, lactoside] | – | – | – | – | – | – | > 25 | – | – | – | – | > 25 | > 25 | > 25 | > 25 | > 25 | > 25 | > 25 | > 25 | > 25
CON(C1CCC2(C)C(CCC3C2CCC2(C)C(C4=CC(=O)OC4)CCC32O)C1)C1OC(C(=O)O)C(O)C(O)C1O [38α, D-galacturonoside] | – | – | – | – | – | – | > 25 | – | – | – | – | > 25 | > 25 | > 25 | > 25 | > 25 | > 25 | > 25 | > 25 | > 25
CON(C1CCC2(C)C(CCC3C2CCC2(C)C(C4=CC(=O)OC4)CCC32O)C1)C1OC(C(=O)O)C(O)C(O)C1O [38β, D-galacturonoside] | 1.4 | 2.2 | 1.6 | 3.1 | 2.1 | 5 | – | 2.7 | 2.2 | 1.9 | > 25 | – | – | – | – | – | – | – | – | –
CON(C1CCC2(C)C(CCC3C2CCC2(C)C(C4=CC(=O)OC4)CCC32O)C1)C1OC(CO)C(O)C(O)C1O [39α, L-taloside] | – | – | – | – | – | – | > 25 | – | – | – | – | > 25 | > 25 | > 25 | > 25 | > 25 | > 25 | > 25 | > 25 | > 25
CON(C1CCC2(C)C(CCC3C2CCC2(C)C(C4=CC(=O)OC4)CCC32O)C1)C1OC(CO)C(O)C(O)C1O [39β, L-taloside] | 1.1 | 1.4 | 1 | 1.5 | 0.96 | 1.8 | – | 2.3 | 0.89 | 0.76 | 0.5 | – | – | – | – | – | – | – | – | –
CON(C1CCC2(C)C(CCC3C2CCC2(C)C(C4=CC(=O)OC4)CCC32O)C1)C1OC(CO)C(O)C(O)C1O [40α, D-taloside] | – | – | – | – | – | – | > 25 | – | – | – | – | > 25 | > 25 | > 25 | > 25 | > 25 | > 25 | > 25 | > 25 | > 25
CON(C1CCC2(C)C(CCC3C2CCC2(C)C(C4=CC(=O)OC4)CCC32O)C1)C1OC(CO)C(O)C(O)C1O [42α, L-glucoside] | – | – | – | – | – | – | > 25 | – | – | – | – | > 25 | > 25 | > 25 | > 25 | > 25 | > 25 | > 25 | > 25 | > 25
CON(C1CCC2(C)C(CCC3C2CCC2(C)C(C4=CC(=O)OC4)CCC32O)C1)C1OC(CO)C(O)C(O)C1O [42β, L-glucoside] | 1.3 | 1.9 | 0.55 | 1 | 0.9 | 0.6 | – | 0.9 | 0.8 | 1.3 | 1.2 | – | – | – | – | – | – | – | – | –
C[C@]12CC[C@H](O[C@@H]3O[C@H](CO)[C@@H](O)[C@H](O)[C@H]3O)C[C@H]1CC[C@@H]1[C@@H]2CC[C@]2(C)[C@@H](C3=CC(=O)OC3)CC[C@]12O [43β, O-D-glucoside] | 0.39 | 0.22 | 0.19 | 0.4 | 0.21 | 0.7 | – | 0.6 | 0.29 | 0.22 | > 25 | – | – | – | – | – | – | – | – | –
D-arabinoside [33α] | – | – | – | – | – | – | > 25 | – | – | – | – | > 25 | > 25 | > 25 | > 25 | > 25 | > 25 | > 25 | > 25 | > 25
